Measurements from patent US8188001B2, “Fungicidal mixtures” (BASF Aktiengesellschaft, priority 2002, dated 2012).

Legend:
[1] = system: Erysiphe [syn. Blumeria] graminis form a specialis. tritici; assay: Activity against mildew of wheat, protective spray on potted wheat seedlings; assay type: in vivo; conditions: wheat cv. Kanzler, 7 days
Procedure: (§1) The active compounds, separately or together, were formulated as a 10% emulsion in a mixture of 85% by weight of cyclohexanone and 5% by weight of emulsifier, and diluted with water to the desired concentration.
(§2) Evaluation was carried out by determining the infected leaf areas in percent. These percentages were converted into efficacies. The efficacy (W) was calculated as follows using Abbot's formula:
(§3) [formula] • α corresponds to the fungal infection of the treated plants in % and • β corresponds to the fungal infection of the untreated (control) plants in %.
(§4) An efficacy of 0 means that the infection level of the treated plants corresponds to that of the untreated control plants; an efficacy of 100 means that the treated plants were not infected.
(§5) The expected efficacies of the mixtures of the active compounds were determined using Colby's formula [R. S. Colby, Weeds 15, 20-22 (1967)] and compared with the observed efficacies. Colby formula: E=x+y−xy/100 • E expected efficacy, expressed in % of the untreated control, when using the mixture of the active compounds A and B at the concentrations a and b • x efficacy, expressed in % of the untreated control, when using active compound A at a concentration of a • y efficacy, expressed in % of the untreated control, when using active compound B at a concentration of b.
Use example 1: Activity against mildew of wheat caused by Erysiphe [syn. Blumeria] graminis form a specialis. tritici
Leaves of wheat seedlings of the cultivar “Kanzler”, grown in pots, were sprayed to runoff point with an aqueous preparation of active compound which had been prepared from a stock solution comprising 10% of active compound, 85% of cyclohexanone and 5% of emulsifier, and 24 hours after the spray coating had dried on, the leaves were dusted with spores of mildew of wheat (Erysiphe [syn. Blumeria] graminis form a specialis. tritici). The test plants were then placed in a greenhouse at 20-24° C. and 60-90% relative atmospheric humidity. After 7 days, the extent of the mildew development was determined visually in % infection of the entire leaf area.
The visually determined values for the percentage of diseased leaf areas were converted into efficacies in % of the untreated control. An efficacy of 0 means the same disease level as in the untreated control, an efficacy of 100 means a disease level of 0%. The expected efficacies for the combinations of active compounds were determined using Colby's formula, mentioned above, and compared with the observed efficacies.

Sphaerotheca fuliginea = assay: Protective activity against mildew of cucumber, spray on potted cucumber seedlings; assay type: in vivo; conditions: cucumber cv. chinese snake, 7 days
Procedure: as §1, §2, §3, §4, §5
Use example 2: Protective activity against mildew of cucumber caused by Sphaerotheca fuliginea
Leaves of cucumber seedlings of the cultivar “chinese snake”, grown in pots, were, at the cotyledon stage, sprayed to runoff point with an aqueous preparation of active compound which had been prepared from a stock solution comprising 10% of active compound, 85% of cyclohexanone and 5% of emulsifier. 20 hours after the spray coating had dried on, the plants were inoculated with an aqueous spore suspension of mildew of cucumber (Sphaerotheca fuliginea). The plants were then cultivated in a greenhouse at 20-24° C. and 60-80% relative atmospheric humidity for 7 days. The extent of the mildew development was then determined visually in % infection of the cotyledon area. The visually determined values for the percentage of diseased leaf areas were converted into efficacies in % of the untreated control. An efficacy of 0 means the same disease level as in the untreated control, an efficacy of 100 means a disease level of 0%. The expected efficacies for the combinations of active compounds were determined using Colby's formula, mentioned above, and compared with the observed efficacies.

Compound | Efficacy in % of the untreated control ([1]; 1 ppm in the spray liquor) [%] | Efficacy in % of the untreated control ([1]; 4 ppm in the spray liquor) [%] | Efficacy in % of the untreated control (Sphaerotheca fuliginea; 0.015 ppm in the spray liquor) [%] | Efficacy in % of the untreated control (Sphaerotheca fuliginea; 0.06 ppm in the spray liquor) [%] | Efficacy in % of the untreated control ([1]; 0.06 ppm in the spray liquor) [%] | Efficacy in % of the untreated control ([1]; 0.25 ppm in the spray liquor) [%] | Efficacy in % of the untreated control (Sphaerotheca fuliginea; 0.25 ppm in the spray liquor) [%] | Efficacy in % of the untreated control (Sphaerotheca fuliginea; 1 ppm in the spray liquor) [%] | Efficacy in % of the untreated control (Sphaerotheca fuliginea; 4 ppm in the spray liquor) [%] | Efficacy in % of the untreated control ([1]; 0.015 ppm in the spray liquor) [%]
N#Cc1sc2c(=O)c3ccccc3c(=O)c=2sc1C#N [Compound VIII, dithianon] | 0 | 0 |  |  |  |  |  |  |  | 
O=C(Cc1ccccc1)N/C(=N\OCC1CC1)c1c(OC(F)F)ccc(F)c1F [Compound VI] |  |  | 0 | 33 | 0 | 53 |  |  |  | 
OC(Cc1ccccc1Cl)(Cn1nc[nH]c1=S)C1(Cl)CC1 (stereo not shown) [Compound I, 2-[2-(1-chlorocyclopropyl)-3-(2-chlorophenyl)-2-hydroxypropyl]-2,4-dihydro-[1,2,4]-triazole-3-thione] | 0 | 42 |  |  |  | 0 | 56 | 78 |  | 
O=C(Nc1ccccc1-c1ccc(Cl)cc1)c1cccnc1Cl [Compound II, boscalid] | 0 | 0 |  | 0 | 0 | 0 | 0 |  | 78 | 
COc1cc(C)c(C(=O)c2c(OC)ccc(Br)c2C)c(OC)c1OC [Compound IV, metrafenone] |  |  | 0 | 0 | 53 |  |  |  |  | 30
Cc1ccc(-c2c(Cl)nc(C#N)n2S(=O)(=O)N(C)C)cc1 [Compound XI, cyazofamid] | 22 |  |  |  | 0 | 22 |  |  |  | 
